Source: US20110117164A1, “Use of Additive Sites to Control Nitric Oxide Release from Nitric Oxide Donors Contained within Polymers” (priority 2004, published 2011)

Experiments:
[1] = Air stability of isolated intramolecular diazeniumdiolates; format: physicochemical
Procedure: The reaction of NO with 1f yielded a diazeniumdiolate (as determined by UV) that was initially air-stable, but decomposed after 12 hours even with storage at −20° C. […] Thus, the most air-stable intramolecular diazeniumdiolate that could be isolated was that of diamine 1e. Air stable bis-diazeniumdiolates of 1f and 1g may, however, be prepared when an exogenous base such as sodium methoxide is present in the reaction mixture.

[2] = donor and its diamine precursor; back react to potentially toxic nitrosamines; cited from earlier work
[3] = NO release from polymer films/coatings containing NO donor in PBS buffer at 37° C. by chemiluminescence; format: physicochemical; settings: ~5 wt. % in PVC film plasticized with DOS (1:2), PBS buffer, 37° C., no KTpClPB
Procedure: Thermal stability of diazeniumdiolates. […] Kinetics. […] Use in Hydrophobic Systems.
In the absence of the KTpClPB, NO release decreases dramatically after approximately 1 hour. […] The decrease in NO release observed is believed to result from an increase in the pH within the organic polymer film, which decreases the decomposition rate of lipophilic diazeniumdiolates. As water diffuses into the film initiating NO release, secondary amine sites result. The secondary amine sites have a higher pKa than water and therefore deprotonate water to form hydroxide ions. The basic microdomain environment that results within the polymer, in turn, slows further decomposition of the remaining diazeniumdiolates that would generate NO. This retardation may occur as a result of the organic ammonium hydroxide microphases within the polymer, which in turn serves to stabilize the remaining diazeniumdiolates.
FT-IR were collected on Perken Elmer Spectrum VX. […] Elemental analyses were performed. Reagents. […] NO was purchased from Matheson Gases. […] General NO Addition Procedure. […] The products were finally collected and dried under vacuum. Molar Extinction Coefficients. […] The maximum wavelength and absorbance were collected. […] Kinetics Studies. […] The NO released was measured using chemiluminescence. […] Preparation of Polymer Films Containing Diazeniumdiolates. […] The membranes were covered and allowed to cure overnight. […] Polymerization to Form Boc-protected Diamine Copolymer.
General Procedure for Deprotection to Form Diamine Copolymer (c). 35 mg of the copolymer (b) was dissolved in 2 mL of dichloromethane and then 200 μL of TFA (trifluoroacetic acid) was added dropwise. The solution was stirred at room temperature for about 3 hours. The reaction mixture was diluted with 20 mL of dichloromethane, and the organic phase was then washed with sodium bicarbonate, water, and brine, and was dried with sodium sulfate. The solvent was evaporated and the resulting copolymer was dried under vacuum overnight. ^1H-NMR was performed to confirm the structure and actual composition of the copolymer. General Procedure for NO Loading to Form Polymer-Based NO Donor (d). 20 mg of the deprotected copolymer (c) was dissolved in 3 mL of dry THF and placed in a high pressure reactor with a stirring bar, and flushed with argon for about 10 minutes. 100% excess of sodium methoxide (with respect to free amine sites) was added and the reactor was closed. The reactor was purged with argon again for several times (e.g. ten times) over a 1 hour period and was charged with NO at 80 psi. The reaction mixture was stirred for 72 hours at room temperature. After the reaction was complete, the copolymer was precipitated with dry hexane under argon. The remaining solvent was removed using a vacuum, and the diazeniumdiolated copolymers (d) were examined by UV-Vis spectrum as well as NOA. This resulting copolymer was stored in sealed vials charged with argon in a freezer. Preparation of Polymer Films Containing Polymer-Based No Donor. Polymer membranes containing the polymer-based NO donor was prepared by dissolving 60.8 mg poly(vinyl chloride) (PVC), 30.4 mg dioctyl sebacate (DOS), and 9.1 mg poly(lactide-co-glycolide) (50:50) (PLGA 50:50) in 1.5 mL of freshly distilled tetrahydrofuran. […] A trilayer film configuration is employed to fabricate films. […] Four hours later the polymer cocktail was cast on top of the PVC layer. After another 4 hours, the PVC solution was cast again as a finish layer. The membrane was covered and allowed to cure overnight. Polymer films containing no additives were prepared in a similar manner. […] NO Release Measurements by Chemiluminescence. All NO measurements were performed using a Sievers Nitric Oxide Analyzer (NOA), model 280. The instrument was calibrated before each experiment using an internal two-point calibration (zero gas and 45 PPM). The flow rate was set to 200 mL/min with a cell pressure of 5.4 torr and an oxygen pressure of 6.0 psig. […]

[4] = tested on: thrombus formation; settings: dispersed in a silicone rubber matrix; cited from earlier work
[5] = for t1/2 ("apparent" t1/2 and t1/2): buffer, pH 7.4; for k: first order decomposition, PBS buffer, pH 7.4, 37° C., n > 3
[6] = Thermal gravimetric analysis under nitrogen (thermal stability of diazeniumdiolates); format: physicochemical; settings: nitrogen atmosphere
[7] = tested on: platelet activity; settings: within a polymer coating on the inner walls of extracorporeal circuits; cited from earlier work
[8] = tested on: cells after vascular injury; settings: cited from earlier work
[9] = in vivo; cited from earlier work

SMILES | t1/2 ("apparent" t1/2 and t1/2) [5] [min] | TNO loss (stable up to) [6] [°C] | k [5] [s⁻¹] | other results
CCCCCCN(CCCCCC)CCCCCCN [Compound 1f, N,N-dihexylhexamethylene diamine] |  |  |  | time to decomposition of the initially air-stable diazeniumdiolate ([1]; even with storage at −20° C.): 12 h
CCCCCCCCCCCCN(CCCCCCN)CCCCCCCCCCCC [Compound 1g, N,N-didodecylhexamethylene diamine] |  |  |  | air stability during work-up ([1]; presence of oxygen during the work-up procedure): immediately decomposes
NCCN(CCN)/[N+]([O-])=N/O [DETA/NO] |  |  |  | effect on cell proliferation after vascular injury [8]: substantially suppress overproliferation of cells after vascular injury
O=C([O-])C1CCCN1[N+]([O-])=N[O-].[Na+].[Na+] (centres unmarked) [PROLI/NO] |  |  |  | effect when infused into blood [9]: relieve muscle spasms

The next lines start with results.

t1/2 ("apparent" t1/2 and t1/2) [5] [min] | TNO loss (stable up to) [6] [°C] | SMILES | k [5] [s⁻¹] | other results
1.12 ± 0.012 | 104 | CNCCCCCCN(C)/[N+]([O-])=N/O [Compound 2a, (Z)-1-[N-methyl-N-[6-(N-methylammoniohexyl)amino]]-diazen-1-ium-1,2-diolate] | 0.010 ± 0.0001 | leaching from polymer matrix [2]: tend to leach from the surface of the polymer matrix; total NO release profile from film without additive [3]: releases all of its NO in a short period of time; effect on thrombus formation [4]: prevent thrombus formation on the surface of intravascular sensors; effect on platelet activity [7]: greatly reduce platelet activity
5.78 ± 0.433 | 104 | CCNCCCCCCN(CC)/[N+]([O-])=N/O [Compound 2b, (Z)-1-{N-Ethyl-N-[6-(N-ethylammoniohexyl)amino]}diazen-1-ium-1,2-diolate] | 0.0020 ± 0.0001 | 
5.32 ± 0.383 | 104 | CCCNCCCCCCN(CCC)/[N+]([O-])=N/O [Compound 2c, (Z)-1-{N-Propyl-N-[6-(N-propylammoniohexyl)amino]}-diazen-1-ium-1,2-diolate] | 0.0022 ± 0.0001 | 
4.65 ± 0.517 | 104 | CCCCCNCCCCCCN(CCCCC)/[N+]([O-])=N/O [Compound 2e, (Z)-1-{N-Pentyl-N-[6-(N-pentylammoniohexyl)amino]}-diazen-1-ium-1,2-diolate] | 0.0025 ± 0.0001 | 
